Read-outs that look alike come from different tables or passages of the source.
Experiments:
catalase = molecular target: T1, catalase (Bos taurus, UniProt P00432); assay: Activity recovery of catalase in dry formulations following gamma irradiation; assay type: physicochemical, bovine; settings: Table 10, superoxide scavengers; catalase 100 μg mL^−1 prior to drying; dry; 25-40 kGy
T1 construct: Catalase (from bovine liver, Sigma C9322, 2380 U /mg solid); purchased Sigma C9322; host or cells: bovine liver
T1 sequence (P00432 2-527 limits assumed): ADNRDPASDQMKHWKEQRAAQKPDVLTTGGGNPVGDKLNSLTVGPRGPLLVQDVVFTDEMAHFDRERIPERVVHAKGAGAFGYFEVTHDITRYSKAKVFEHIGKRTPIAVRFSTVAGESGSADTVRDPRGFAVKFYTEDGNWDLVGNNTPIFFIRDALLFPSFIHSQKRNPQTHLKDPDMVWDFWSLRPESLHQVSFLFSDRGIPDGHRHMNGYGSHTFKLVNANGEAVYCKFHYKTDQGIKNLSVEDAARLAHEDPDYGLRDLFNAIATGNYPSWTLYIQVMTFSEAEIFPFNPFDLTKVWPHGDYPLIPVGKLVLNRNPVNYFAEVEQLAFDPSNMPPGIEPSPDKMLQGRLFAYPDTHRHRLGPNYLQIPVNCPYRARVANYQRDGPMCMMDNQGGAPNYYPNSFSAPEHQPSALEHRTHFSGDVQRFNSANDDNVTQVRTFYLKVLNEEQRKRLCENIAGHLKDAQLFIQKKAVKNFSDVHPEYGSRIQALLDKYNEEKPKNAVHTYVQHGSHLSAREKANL
Procedure: (§1) In each example, an aqueous solution of a protein was prepared with selected additives in an Eppendorf tube or in a glass vial. Water was removed from the formulation by drying under a stream of nitrogen at 30° C. and subsequent incubation at atmospheric pressure in the presence of a dessicant. The Eppendorf tubes or the glass vials were sealed and delivered to an industrial sterilisation service for gamma irradiation, with a dose range typical for sterile medical products. The gamma-irradiated samples were reconstituted on their return and analysed for protein activity or structural integrity. The results were compared with those achieved using control (i.e. non-irradiated) samples.
(§2) The dry samples (approx. 20 μg in an Eppendorf tube) were gamma-irradiated by an industry-standard commercial sterilising service provided by Isotron PLC (Swindon, Wilts, UK), using a Cobalt 60 gamma source at ambient temperature. The radiation dose was in the range of 25-40 kGy.
The original solutions (i.e. solutions prior to drying) contained 100 μg mL^−1 of catalase and typically the total of 100 mM of protective compounds (i.e. 100 mM in case of a single compound, 50 mM+50 mM in case of two compounds, 33.3 mM+33.3 mM+33.3 mM in the case of three compounds etc.). The solutions were dried and gamma irradiated. Following the gamma irradiation, the samples, both pre- and post-gamma irradiated, were assayed for […] activity. This was performed according to the following procedure:
Water was added to the sample to achieve 100 μg mL^−1 of catalase. 100 μL of the solution was added to a mixture of 18 mL of PBS and 2 mL of hydrogen peroxide (30 mM in water) in a 125 mL polypropylene pot and mixed. The resulting mixture was incubated at room temperature precisely for 30 min. In the meantime, the following reagents were mixed in a plastic cuvette for spectrophotometric measurements: • 2.73 mL of citrate/phosphate buffer (0.1 M, pH 5.0) • 100 μL of tetramethylbenzidine (TMB) (3 mg/mL, dissolved in dimethyl sulphoxide (DMSO)) • 100 μL of lactoperoxidase
Following the 30 min incubation period, 70 μL of the catalase containing mixture was added to the cuvette and absorbance was read in approximately 30 s. The results were expressed as percentage recovery, by reference to the absorbance measured in the fresh samples (i.e. prior to incubation at increased temperature).

human growth hormone [1] = molecular target: T2, human growth hormone (Homo sapiens, UniProt P01241); assay: Recovery of structural integrity of human growth hormone in dry formulations following gamma irradiation (HPLC); assay type: physicochemical; settings: structural integrity by HPLC, human growth hormone 2.5 mg mL^−1 prior to drying, 25-40 kGy
T2 construct: purchased National Institute of Biological Standards and Control; further samples on prescription from a GP surgery
Procedure: as §1, §2
Mobile phase was prepared by mixing 71 parts (by volume) of a solution of TRIS (0.05 M, in water adjusted with hydrochloric acid to a pH of 7.5) and 29 parts (by volume) of n-propylalcohol. The mobile phase was filtered prior to its use. The liquid chromatograph (Agilent 1100 series) was equipped with a 214 nm detector and a 4.6×250 mm column (Phenomenex 00G-4167-E0) packed with butylsilyl silica gel with a granulometry of 5 μm and a porosity of 30 nm, maintained at 45° C. The flow rate was maintained at 0.5 mL min^−1. 15 μL of aqueous samples of human growth hormone (typically 1-2.5 mg mL^−1) were injected. Results were expressed as % of peak area corresponding to the gamma irradiated sample with respect to that measured in non-irradiated sample.

Sandostatin = assay: Recovery of structural integrity of Sandostatin in dry formulations following gamma irradiation (HPLC); assay type: physicochemical; settings: structural integrity by HPLC, excipient:Sandostatin weight ratio 10:1, 25-40 kGy
Procedure: as §1, §2
Mobile phase A was 0.1 M triethylamine adjusted to pH 2.3 with phosphoric acid. Mobile phase B was acetonitrile. The mobile phases were filtered prior to their use. The following linear gradient was used: time 0: 90% A+10% B; time 35 min: 60% A+40% B. The liquid chromatograph (Agilent 1100 series) was equipped with a 214 nm detector, guard column and a 4.6×150 mm C18 column with a granulometry of 5 μm and a porosity of 30 nm, maintained at ambient temperature. The flow rate was maintained at 1.0 mL min^−1. Injection volume was 50 μL (typically sandostatin at 200 μg mL^−1). Results were expressed as % of main peak area (i.e. area of the peak corresponding to intact sandostatin measured in the gamma irradiated sample with respect to that measured in non-irradiated sample of identical composition). A chromatogram of a standard solution of sandostatin was recorded after every 12 samples to ensure that no drift in the position of the major peak had occurred. The control measurements ruled out any ambiguity in interpreting the chromatograms.

human growth hormone [2] = molecular target: T2, human growth hormone; assay: Recovery of structural integrity of human growth hormone in dry formulations following gamma irradiation (HPLC); assay type: physicochemical; settings: Table 4, prior-art antioxidants; structural integrity by HPLC; human growth hormone 2.5 mg mL^−1 prior to drying; dry; 25-40 kGy, ambient temperature
[3] = cited from earlier work

T2 sequence (P01241 27-217): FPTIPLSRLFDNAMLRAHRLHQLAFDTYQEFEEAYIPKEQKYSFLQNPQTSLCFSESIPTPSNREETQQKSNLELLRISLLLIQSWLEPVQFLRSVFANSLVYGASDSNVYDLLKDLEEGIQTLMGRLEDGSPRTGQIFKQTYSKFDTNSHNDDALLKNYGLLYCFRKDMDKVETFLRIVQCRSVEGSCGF

CSCC[C@H](N)C(=O)O [Methionine]
Enzyme activity remaining after gamma-irradiation (catalase): 44.3% | Structural integrity remaining after gamma-irradiation (HPLC) (human growth hormone [1]; Table 4, prior-art antioxidants, ambient temperature): 69.7% | Structural integrity remaining after gamma-irradiation (HPLC) (human growth hormone [1]; Table 7, singlet oxygen scavengers): 69.7% | Structural integrity remaining after gamma-irradiation (HPLC) (human growth hormone [1]; Table 11, superoxide scavengers): 69.7% | Enzyme activity remaining after gamma-irradiation (Sandostatin; Table 8, singlet oxygen scavengers): 91.1% | Enzyme activity remaining after gamma-irradiation (Sandostatin; Table 12, superoxide scavengers): 91.1% | Structural integrity remaining after gamma-irradiation (HPLC) (human growth hormone [2]): 69.7% | Rate of reaction with singlet oxygen ([3]; Table 5): 1.3e+07 M⁻¹ s⁻¹ | Rate of reaction with singlet oxygen ([3]; Table 7): 1.3e+07 M⁻¹ s⁻¹ | Rate of reaction with singlet oxygen ([3]; Table 8): 1.3e+07 M⁻¹ s⁻¹
